Experimental data: US6384049B1, “Cancer treatment” (The Procter & Gamble Company, priority 2000, dated 2002)

System: HT29, a colon cancer tumor line
Test: HT29 colon cancer tumor in nude mouse, average tumor weight
Type: in vivo
Method: Imidazo [4,5-b]pyridine-2-carbamic acid, methyl ester was used to treat HT29, a colon cancer tumor line, in nude mouse. The average tumor weight is reported in mg. The control was the vehicle given twice a week. The imidazo [4,5-b]pyridine-2-carbamic acid, methyl ester was also given on this same schedule. Both compounds were administered by oral gavage.

Structure (SMILES): COC(=O)Nc1nc2ncccc2[nH]1 [pyridinyl, imidazo [4,5-b]pyridine-2-carbamic acid, methyl ester]
- Average Tumor Weight on Day 1 (1000 mg/kg p.o. twice a week): 75.4 mg
- Average Tumor Weight on Day 5 (1000 mg/kg p.o. twice a week): 97.2 mg
- Average Tumor Weight on Day 8 (1000 mg/kg p.o. twice a week): 138.2 mg
- Average Tumor Weight on Day 11 (1000 mg/kg p.o. twice a week): 172.1 mg
- Average Tumor Weight on Day 15 (1000 mg/kg p.o. twice a week): 220.1 mg
- Average Tumor Weight on Day 18 (1000 mg/kg p.o. twice a week): 281.6 mg
- Average Tumor Weight on Day 23 (1000 mg/kg p.o. twice a week): 340.6 mg
- Average Tumor Weight on Day 26 (1000 mg/kg p.o. twice a week): 407.6 mg
- Average Tumor Weight on Day 30 (1000 mg/kg p.o. twice a week): 515.6 mg
- Average Tumor Weight on Day 33 (1000 mg/kg p.o. twice a week, day 33): 562 mg
- Average Tumor Weight on Day 37 (1000 mg/kg p.o. twice a week, day 37): 828.3 mg
- Average Tumor Weight on Day 40 (1000 mg/kg p.o. twice a week, day 40): 533.7 mg
- Average Tumor Weight on Day 44 (1000 mg/kg p.o. twice a week, day 44): 714.4 mg
- Average Tumor Weight on Day 47 (1000 mg/kg p.o. twice a week, day 47): 656.8 mg
- Average Tumor Weight on Day 51 (1000 mg/kg p.o. twice a week, day 51): 763.6 mg
- Average Tumor Weight on Day 54 (1000 mg/kg p.o. twice a week, day 54): 793.3 mg
- Average Tumor Weight on Day 58 (1000 mg/kg p.o. twice a week, day 58): 919 mg
- Average Tumor Weight on Day 1 (2500 mg/kg p.o. twice a week): 76.2 mg
- Average Tumor Weight on Day 5 (2500 mg/kg p.o. twice a week): 62.6 mg
- Average Tumor Weight on Day 8 (2500 mg/kg p.o. twice a week): 115.2 mg
- Average Tumor Weight on Day 11 (2500 mg/kg p.o. twice a week): 101.1 mg
- Average Tumor Weight on Day 15 (2500 mg/kg p.o. twice a week): 196 mg
- Average Tumor Weight on Day 18 (2500 mg/kg p.o. twice a week): 126 mg
- Average Tumor Weight on Day 23 (2500 mg/kg p.o. twice a week): 256 mg
- Average Tumor Weight on Day 26 (2500 mg/kg p.o. twice a week): 171.5 mg
- Average Tumor Weight on Day 1 (1500 m/kg p.o. twice a week): 76.6 mg
- Average Tumor Weight on Day 5 (1500 m/kg p.o. twice a week): 76.1 mg
- Average Tumor Weight on Day 8 (1500 m/kg p.o. twice a week): 94.4 mg
- Average Tumor Weight on Day 11 (1500 m/kg p.o. twice a week): 130 mg
- Average Tumor Weight on Day 15 (1500 m/kg p.o. twice a week): 166.3 mg
- Average Tumor Weight on Day 18 (1500 m/kg p.o. twice a week): 189.3 mg
- Average Tumor Weight on Day 23 (1500 m/kg p.o. twice a week): 242.3 mg
- Average Tumor Weight on Day 26 (1500 m/kg p.o. twice a week): 264 mg
- Average Tumor Weight on Day 30 (1500 m/kg p.o. twice a week): 405 mg
